# From US9428514B2, “Bromodomain inhibitors” (AbbVie Inc., priority 2013, dated 2016)
# Test system: breast cancer cell line MX-1
# Assay: MX-1 cell line proliferation assay (3-day, Cell Titer Glo)
# Type: cell-based
# Details: Homo sapiens, MX1, MX-1 cells, 72 hours, read-out: Cellular proliferation: EC50
# Description: The impact of compounds of the Examples on cancer cell proliferation was determined using the breast cancer cell line MX-1 (ATCC) in a 3-day proliferation assay. MX-1 cells were maintained in RPMI supplemented with 10% FBS at 37° C. and an atmosphere of 5% CO2. For compound testing, MX-1 cells were plated in 96-well black bottom plates at a density of 5000 cells/well in 90 μL of culture media and incubated at 37° overnight to allow cell adhesion and spreading. Compound dilution series were prepared in DMSO via a 3-fold serial dilution from 3 mM to […]. The DMSO dilution series were then diluted 1:100 in phosphate buffered saline, and 10 μL of the resulted solution were added to the appropriate wells of the MX-1 cell plate. The final compound concentrations in the wells were 3, 1, 0.3, 0.1, 0.03, 0.01, 0.003, 0.001, 0.0003, 0.0001, and 0.00003 μM.
# Luminescence readings from the Cell Titer Glo assay were normalized to the DMSO treated cells and analyzed using the GraphPad Prism software with sigmoidal curve fitting to obtain EC50s. The minimum significant ratio (MSR) was determined to evaluate assay reproducibility (Eastwood et al., (2006) J Biomol Screen, 11: 253-261). The overall MSR was determined to be 2.1 and a moving MSR (last six run MSR overtime) has been <2. The EC50 values are reported in Table 1 for the indicated compounds.
row,SMILES,EC50 [nM]
1,"CCOc1cc(=O)n(C)cc1-c1cc(NC(=O)Cc2cc(F)ccc2Cl)ccc1Oc1ccc(F)cc1F [Example 1, 2-(2-chloro-5-fluorophenyl)-N-[4-(2,4-difluorophenoxy)-3-(4-ethoxy-1-methyl-6-oxo-1,6-dihydropyridin-3-yl)phenyl]acetamide]",114
2,"CCOc1cc(=O)n(C)cc1-c1cc(NC(=O)Cc2ccc3c(c2)CCCO3)ccc1Oc1ccc(F)cc1F [Example 2, N-[4-(2,4-difluorophenoxy)-3-(4-ethoxy-1-methyl-6-oxo-1,6-dihydropyridin-3-yl)phenyl]-2-(3,4-dihydro-2H-chromen-6-yl)acetamide]",279
3,"CCOc1cc(=O)n(C)cc1-c1cc(NC(=O)Cc2ccc(Cl)cc2F)ccc1Oc1ccc(F)cc1F [Example 3, 2-(4-chloro-2-fluorophenyl)-N-[4-(2,4-difluorophenoxy)-3-(4-ethoxy-1-methyl-6-oxo-1,6-dihydropyridin-3-yl)phenyl]acetamide]",433
4,"CCOc1cc(=O)n(C)cc1-c1cc(NC(=O)Cc2cnn(C)c2)ccc1Oc1ccc(F)cc1F [Example 4, N-[4-(2,4-difluorophenoxy)-3-(4-ethoxy-1-methyl-6-oxo-1,6-dihydropyridin-3-yl)phenyl]-2-(1-methyl-1H-pyrazol-4-yl)acetamide]",425
5,"CCOc1cc(=O)n(C)cc1-c1cc(NC(=O)Cc2ccc(C)nc2)ccc1Oc1ccc(F)cc1F [Example 5, N-[4-(2,4-difluorophenoxy)-3-(4-ethoxy-1-methyl-6-oxo-1,6-dihydropyridin-3-yl)phenyl]-2-(6-methylpyridin-3-yl)acetamide]",681
6,"CCOc1cc(=O)n(C)cc1-c1cc(NC(=O)Cc2cc(C)n(C)n2)ccc1Oc1ccc(F)cc1F [Example 6, N-[4-(2,4-difluorophenoxy)-3-(4-ethoxy-1-methyl-6-oxo-1,6-dihydropyridin-3-yl)phenyl]-2-(1,5-dimethyl-1H-pyrazol-3-yl)acetamide]",356
7,"CCOc1cc(=O)n(C)cc1-c1cc(NC(=O)Cc2cnc(C)s2)ccc1Oc1ccc(F)cc1F [Example 7, N-[4-(2,4-difluorophenoxy)-3-(4-ethoxy-1-methyl-6-oxo-1,6-dihydropyridin-3-yl)phenyl]-2-(2-methyl-1,3-thiazol-5-yl)acetamide]",187
8,"CCOc1cc(=O)n(C)cc1-c1cc(NC(=O)Cn2ccc(-c3ccccc3F)n2)ccc1Oc1ccc(F)cc1F [Example 8, N-[4-(2,4-difluorophenoxy)-3-(4-ethoxy-1-methyl-6-oxo-1,6-dihydropyridin-3-yl)phenyl]-2-[3-(2-fluorophenyl)-1H-pyrazol-1-yl]acetamide]",> 3000
9,"CCOc1cc(=O)n(C)cc1-c1cc(NCCCn2cccn2)ccc1Oc1ccc(F)cc1F [Example 9, 5-[2-(2,4-difluorophenoxy)-5-{[3-(1H-pyrazol-1-yl)propyl]amino}phenyl]-4-ethoxy-1-methylpyridin-2(1H)-one]",746
10,"CCOc1cc(=O)n(C)cc1-c1cc(NCc2cn3c(n2)CCC3)ccc1Oc1ccc(F)cc1F [Example 10, 5-{2-(2,4-difluorophenoxy)-5-[(6,7-dihydro-5H-pyrrolo[1,2-a]imidazol-2-ylmethyl)amino]phenyl}-4-ethoxy-1-methylpyridin-2(1H)-one]",1890
11,"CCOc1cc(=O)n(C)cc1-c1cc(NCc2cccc(C)n2)ccc1Oc1ccc(F)cc1F [Example 11, 5-[2-(2,4-difluorophenoxy)-5-{[(6-methylpyridin-2-yl)methyl]amino}phenyl]-4-ethoxy-1-methylpyridin-2(1H)-one]",884
12,"CCOc1cc(=O)n(C)cc1-c1cc(NCc2ncccc2C)ccc1Oc1ccc(F)cc1F [Example 12, 5-[2-(2,4-difluorophenoxy)-5-{[(3-methylpyridin-2-yl)methyl]amino}phenyl]-4-ethoxy-1-methylpyridin-2(1H)-one]",1020
13,"CCOc1cc(=O)n(C)cc1-c1cc(NCc2ccnn2C)ccc1Oc1ccc(F)cc1F [Example 13, 5-[2-(2,4-difluorophenoxy)-5-{[(1-methyl-1H-pyrazol-5-yl)methyl]amino}phenyl]-4-ethoxy-1-methylpyridin-2(1H)-one]",1480
14,"CCOc1cc(=O)n(C)cc1-c1cc(NCCCC(=O)OC)ccc1Oc1ccc(F)cc1F [Example 14, methyl 4-{[4-(2,4-difluorophenoxy)-3-(4-ethoxy-1-methyl-6-oxo-1,6-dihydropyridin-3-yl)phenyl]amino}butanoate]",111
15,"CCOc1cc(=O)n(C)cc1-c1cc(NC(=O)Nc2ccc(C)cc2C)ccc1Oc1ccc(F)cc1F [Example 16, 1-[4-(2,4-difluorophenoxy)-3-(4-ethoxy-1-methyl-6-oxo-1,6-dihydropyridin-3-yl)phenyl]-3-(2,4-dimethylphenyl)urea]",> 3000
16,"CCOc1cc(=O)n(C)cc1-c1cc(NC(=O)Nc2cc(C)ccc2C)ccc1Oc1ccc(F)cc1F [Example 19, 1-[4-(2,4-difluorophenoxy)-3-(4-ethoxy-1-methyl-6-oxo-1,6-dihydropyridin-3-yl)phenyl]-3-(2,5-dimethylphenyl)urea]",557
17,"CCOc1cc(=O)n(C)cc1-c1cc(NCc2cnco2)ccc1Oc1ccc(F)cc1F [Example 23, 5-{2-(2,4-difluorophenoxy)-5-[(1,3-oxazol-5-ylmethyl)amino]phenyl}-4-ethoxy-1-methylpyridin-2(1H)-one]",> 3000
18,"CCOc1cc(=O)n(C)cc1-c1cc(NCc2cncn2C)ccc1Oc1ccc(F)cc1F [Example 24, 5-[2-(2,4-difluorophenoxy)-5-{[(1-methyl-1H-imidazol-5-yl)methyl]amino}phenyl]-4-ethoxy-1-methylpyridin-2(1H)-one]",832
19,"CCOc1cc(=O)n(C)cc1-c1cc(NCc2ccn(CC)n2)ccc1Oc1ccc(F)cc1F [Example 25, 5-[2-(2,4-difluorophenoxy)-5-{[(1-ethyl-1H-pyrazol-3-yl)methyl]amino}phenyl]-4-ethoxy-1-methylpyridin-2(1H)-one]",1540
20,"CCOc1cc(=O)n(C)cc1-c1cc(NC(=O)CCS(=O)(=O)c2ccccc2)ccc1Oc1ccc(F)cc1F [Example 27, N-[4-(2,4-difluorophenoxy)-3-(4-ethoxy-1-methyl-6-oxo-1,6-dihydropyridin-3-yl)phenyl]-3-(phenylsulfonyl)propanamide]",730
21,"CCOc1cc(=O)n(C)cc1-c1cc(NC(=O)Cc2cccc(Oc3ccccc3)c2)ccc1Oc1ccc(F)cc1F [Example 28, N-[4-(2,4-difluorophenoxy)-3-(4-ethoxy-1-methyl-6-oxo-1,6-dihydropyridin-3-yl)phenyl]-2-(3-phenoxyphenyl)acetamide]",605
22,"CCOc1cc(=O)n(C)cc1-c1cc(NC(=O)Cc2ccc(S(C)(=O)=O)cc2)ccc1Oc1ccc(F)cc1F [Example 29, N-[4-(2,4-difluorophenoxy)-3-(4-ethoxy-1-methyl-6-oxo-1,6-dihydropyridin-3-yl)phenyl]-2-[4-(methylsulfonyl)phenyl]acetamide]",433
23,"CCOc1cc(=O)n(C)cc1-c1cc(NC(=O)CCOc2ccccc2)ccc1Oc1ccc(F)cc1F [Example 30, N-[4-(2,4-difluorophenoxy)-3-(4-ethoxy-1-methyl-6-oxo-1,6-dihydropyridin-3-yl)phenyl]-3-phenoxypropanamide]",> 3000
